Results published in patent US6358885B1, “Substituted phenylheterocyclic herbicides” (Mississippi State University, priority 1992, dated 2002).

Assays:
[1] = tested on: cheatgrass; test: Test B preemergence/postemergence greenhouse plant response rating 0 to 10; format: in vivo, Bromus secalinus; settings: 0 to 10 scale
Method in brief: (§1)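 Postemergence treatment of plants two to eighteen cm tall ran alongside preemergence treatment of planted seed, each using compound in a non-phytotoxic solvent.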

[2] = tested on: cotton; test: as above; format: in vivo, Gossypium hirsutum; settings: 0 to 10 scale
Method in brief: as §1

[3] = tested on: lambsquarters; test: as above; format: in vivo, Chenopodium album; settings: 0 to 10 scale
Method in brief: as §1

[4] = tested on: rice; test: as above; format: in vivo, Oryza sativa; settings: 0 to 10 scale
Method in brief: as §1

[5] = tested on: soybean; test: as above; format: in vivo, Glycine max; settings: 0 to 10 scale
Method in brief: as §1

[6] = tested on: velvetleaf; test: as above; format: in vivo, Abutilon theophrasti; settings: 0 to 10 scale
Method in brief: as §1

[7] = tested on: wild buckwheat; test: as above; format: in vivo, Polygonum convolvulus; settings: 0 to 10 scale
Method in brief: as §1

[8] = tested on: purple nutsedge; test: as above; format: in vivo, Cyperus rotundus; settings: 0 to 10 scale
Method in brief: as §1

[9] = tested on: barley; test: Test C preemergence/postemergence greenhouse plant response rating 0 to 100; format: in vivo, Hordeum vulgare; settings: POSTEMERGENCE; for Plant response rating Barley Igri: 0 to 100 scale
Method in brief: (§2)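 Compounds in non-phytotoxic solvent went onto sandy loam before emergence (seeded one day earlier) or onto plants at the one-to-four leaf stage. Duck salad was treated via flood water (~2.5 cm, maintained) over silt loam.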

[10] = tested on: corn; test: as above; format: in vivo, Zea mays; settings: POSTEMERGENCE; for Plant response rating, Corn: 0 to 100 scale
Method in brief: as §2

[11] = tested on: lambsquarters; test: as above; format: in vivo, Chenopodium album; settings: POSTEMERGENCE; for Plant response rating Lambsquarters: 0 to 100 scale
Method in brief: as §2

[12] = tested on: morningglory; test: as above; format: in vivo, Ipomoea hederacea; settings: POSTEMERGENCE; for Plant response rating, Morningglory: 0 to 100 scale
Method in brief: as §2

[13] = tested on: rape; test: as above; format: in vivo, Brassica napus; settings: POSTEMERGENCE; for Plant response rating, Rape: 0 to 100 scale
Method in brief: as §2

[14] = tested on: sorghum; test: as above; format: in vivo, Sorghum bicolor; settings: POSTEMERGENCE; for Plant response rating, Sorghum: 0 to 100 scale
Method in brief: as §2

[15] = tested on: soybean; test: as above; format: in vivo, Glycine max; settings: POSTEMERGENCE; for Plant response rating, Soybean: 0 to 100 scale
Method in brief: as §2

[16] = tested on: sugar beet; test: as above; format: in vivo, Beta vulgaris; settings: POSTEMERGENCE; for Plant response rating, Sugar beet: 0 to 100 scale
Method in brief: as §2

[17] = tested on: velvetleaf; test: as above; format: in vivo, Abutilon theophrasti; settings: POSTEMERGENCE; for Plant response rating, Velvetleaf: 0 to 100 scale
Method in brief: as §2

[18] = tested on: umbrella sedge; test: Test C flood test plant response rating 0 to 100; format: in vivo, Cyperus difformis; settings: for Plant response rating Umbrella sedge: flood test species listed under POSTEMERGENCE, 0 to 100 scale
Method in brief: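 Compounds in non-phytotoxic solvent applied preemergence to sandy loam one day after planting, postemergence at the 1–4 leaf stage, or to ~2.5 cm floodwater over silt loam.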

C#CC(C)N1C(=O)COc2cc(F)c(-c3nn4c(c3Cl)CCCC4)cc21 (centres unmarked) [Compound 50]
5: Plant response rating, Cheatgrass ([1]; POSTEMERGENCE, Rate 10 g/ha) | Plant response rating, Nutsedge ([8]; POSTEMERGENCE, Rate 50 g/ha)
20: Plant response rating (0 to 100), Barley Igri ([9]; Rate 4 g/ha) | Plant response rating (0 to 100), Corn ([10]; Rate 1 g/ha) | Plant response rating (0 to 100), Sugar beet ([16]; Rate 1 g/ha)
0: Plant response rating, Cotton ([2]; PREEMERGENCE, Rate 10 g/ha) | Plant response rating, Cotton ([2]; PREEMERGENCE, Rate 50 g/ha) | Plant response rating, Velvetleaf ([6]; PREEMERGENCE, Rate 50 g/ha) | Plant response rating, Nutsedge ([8]; PREEMERGENCE, Rate 50 g/ha) | Plant response rating (0 to 100), Barley Igri ([9]; Rate 1 g/ha) | Plant response rating (0 to 100), Rape ([13]; Rate 1 g/ha) | Plant response rating (0 to 100), Rape ([13]; Rate 4 g/ha) | Plant response rating (0 to 100), Umbrella sedge ([18]; POSTEMERGENCE section, flood test, Rate 4 g/ha) | Plant response rating (0 to 100), Umbrella sedge ([18]; Rate 16 g/ha, under POSTEMERGENCE head (flood test species))
75: Plant response rating Umbrella sedge ([18]; 62 g/ha)
2: Plant response rating, Cheatgrass ([1]; PREEMERGENCE, Rate 10 g/ha) | Plant response rating, Rice ([4]; PREEMERGENCE, Rate 50 g/ha)
95: Plant response rating Umbrella sedge ([18]; 250 g/ha)
70: Plant response rating (0 to 100), Morningglory ([12]; Rate 4 g/ha) | Plant response rating (0 to 100), Soybean ([15]; Rate 16 g/ha) | Plant response rating (0 to 100), Velvetleaf ([17]; Rate 1 g/ha)
30: Plant response rating (0 to 100), Barley Igri ([9]; Rate 16 g/ha) | Plant response rating (0 to 100), Corn ([10]; Rate 4 g/ha) | Plant response rating (0 to 100), Sorghum ([14]; Rate 1 g/ha)
60: Plant response rating, Corn ([10]; 250 g/ha) | Plant response rating (0 to 100), Soybean ([15]; Rate 4 g/ha)
10: Plant response rating, Cotton ([2]; POSTEMERGENCE, Rate 50 g/ha) | Plant response rating, Lambsquarter ([3]; POSTEMERGENCE, Rate 50 g/ha) | Plant response rating, Lambsquarter ([3]; PREEMERGENCE, Rate 50 g/ha) | Plant response rating, Velvetleaf ([6]; POSTEMERGENCE, Rate 50 g/ha) | Plant response rating, Wild buckwheat ([7]; POSTEMERGENCE, Rate 10 g/ha) | Plant response rating, Wild buckwheat ([7]; POSTEMERGENCE, Rate 50 g/ha)
50: Plant response rating Barley Igri ([9]; 250 g/ha) | Plant response rating, Corn ([10]; 62 g/ha) | Plant response rating (0 to 100), Morningglory ([12]; Rate 1 g/ha) | Plant response rating (0 to 100), Rape ([13]; Rate 16 g/ha) | Plant response rating, Sorghum ([14]; 62 g/ha) | Plant response rating, Sorghum ([14]; 250 g/ha) | Plant response rating (0 to 100), Sorghum ([14]; Rate 4 g/ha) | Plant response rating (0 to 100), Sorghum ([14]; Rate 16 g/ha)
6: Plant response rating, Cheatgrass ([1]; POSTEMERGENCE, Rate 50 g/ha) | Plant response rating, Rice ([4]; POSTEMERGENCE, Rate 10 g/ha) | Plant response rating, Soybean ([5]; POSTEMERGENCE, Rate 10 g/ha)
40: Plant response rating Barley Igri ([9]; 62 g/ha) | Plant response rating (0 to 100), Corn ([10]; Rate 16 g/ha) | Plant response rating (0 to 100), Soybean ([15]; Rate 1 g/ha)
3: Plant response rating, Cheatgrass ([1]; PREEMERGENCE, Rate 50 g/ha) | Plant response rating, Soybean ([5]; PREEMERGENCE, Rate 50 g/ha)
7: Plant response rating, Wild buckwheat ([7]; PREEMERGENCE, Rate 50 g/ha)
90: Plant response rating, Soybean ([15]; 62 g/ha) | Plant response rating, Soybean ([15]; 250 g/ha) | Plant response rating (0 to 100), Velvetleaf ([17]; Rate 4 g/ha)
9: Plant response rating, Cotton ([2]; POSTEMERGENCE, Rate 10 g/ha) | Plant response rating, Lambsquarter ([3]; POSTEMERGENCE, Rate 10 g/ha) | Plant response rating, Soybean ([5]; POSTEMERGENCE, Rate 50 g/ha) | Plant response rating, Velvetleaf ([6]; POSTEMERGENCE, Rate 10 g/ha)
100: Plant response rating Lambsquarters ([11]; 62 g/ha) | Plant response rating Lambsquarters ([11]; 250 g/ha) | Plant response rating (0 to 100), Lambsquarters ([11]; Rate 4 g/ha) | Plant response rating (0 to 100), Lambsquarters ([11]; Rate 16 g/ha) | Plant response rating, Morningglory ([12]; 62 g/ha) | Plant response rating, Morningglory ([12]; 250 g/ha) | Plant response rating (0 to 100), Morningglory ([12]; Rate 16 g/ha) | Plant response rating, Rape ([13]; 62 g/ha) | Plant response rating, Rape ([13]; 250 g/ha) | Plant response rating, Sugar beet ([16]; 62 g/ha) | Plant response rating, Sugar beet ([16]; 250 g/ha) | Plant response rating (0 to 100), Sugar beet ([16]; Rate 4 g/ha) | Plant response rating (0 to 100), Sugar beet ([16]; Rate 16 g/ha) | Plant response rating, Velvetleaf ([17]; 62 g/ha) | Plant response rating, Velvetleaf ([17]; 250 g/ha) | Plant response rating (0 to 100), Velvetleaf ([17]; Rate 16 g/ha)
4: Plant response rating, Rice ([4]; POSTEMERGENCE, Rate 50 g/ha) | Plant response rating, Nutsedge ([8]; POSTEMERGENCE, Rate 10 g/ha)
